ChEMBL document CHEMBL1914391, “Design and synthesis of biotinylated inositol 1,3,4,5-tetrakisphosphate targeting Grp1 pleckstrin homology domain” (Bioorg Med Chem, 2011)

Tests used:
[1] = biological target: T1, 1-phosphatidylinositol 4,5-bisphosphate phosphodiesterase delta-1 (Homo sapiens, UniProt P51178); assay: Binding affinity to PLCdelta1 PH domain
T1 sequence (P51178 whole entry): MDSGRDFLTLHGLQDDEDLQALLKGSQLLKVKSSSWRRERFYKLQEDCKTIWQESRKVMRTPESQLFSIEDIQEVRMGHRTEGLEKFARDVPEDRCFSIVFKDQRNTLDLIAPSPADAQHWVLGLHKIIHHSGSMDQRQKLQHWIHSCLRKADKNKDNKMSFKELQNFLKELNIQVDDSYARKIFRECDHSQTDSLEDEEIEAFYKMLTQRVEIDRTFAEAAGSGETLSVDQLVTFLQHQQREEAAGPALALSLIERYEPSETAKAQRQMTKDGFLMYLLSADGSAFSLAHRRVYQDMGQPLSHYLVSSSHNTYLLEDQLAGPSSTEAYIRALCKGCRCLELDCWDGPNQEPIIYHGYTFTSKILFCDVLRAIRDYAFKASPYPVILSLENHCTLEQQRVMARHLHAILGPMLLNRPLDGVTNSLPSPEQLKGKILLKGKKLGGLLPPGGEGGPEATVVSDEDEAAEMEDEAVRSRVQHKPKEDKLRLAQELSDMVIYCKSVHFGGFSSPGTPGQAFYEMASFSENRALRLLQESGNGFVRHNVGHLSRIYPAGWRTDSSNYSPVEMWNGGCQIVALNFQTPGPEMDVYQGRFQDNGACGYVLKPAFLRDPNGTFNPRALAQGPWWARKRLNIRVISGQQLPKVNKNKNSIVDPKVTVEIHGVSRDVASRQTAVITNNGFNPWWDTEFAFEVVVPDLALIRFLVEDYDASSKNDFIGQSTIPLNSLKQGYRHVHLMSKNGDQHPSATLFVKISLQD

[2] = biological target: T2, 1-phosphatidylinositol 4,5-bisphosphate phosphodiesterase delta-1 (Rattus norvegicus, UniProt P10688); assay: Binding affinity to recombinant rat brain PLCdelta1 PH domain (amino acids 11 to 140) by SPR analysis
T2 sequence (P10688 whole entry): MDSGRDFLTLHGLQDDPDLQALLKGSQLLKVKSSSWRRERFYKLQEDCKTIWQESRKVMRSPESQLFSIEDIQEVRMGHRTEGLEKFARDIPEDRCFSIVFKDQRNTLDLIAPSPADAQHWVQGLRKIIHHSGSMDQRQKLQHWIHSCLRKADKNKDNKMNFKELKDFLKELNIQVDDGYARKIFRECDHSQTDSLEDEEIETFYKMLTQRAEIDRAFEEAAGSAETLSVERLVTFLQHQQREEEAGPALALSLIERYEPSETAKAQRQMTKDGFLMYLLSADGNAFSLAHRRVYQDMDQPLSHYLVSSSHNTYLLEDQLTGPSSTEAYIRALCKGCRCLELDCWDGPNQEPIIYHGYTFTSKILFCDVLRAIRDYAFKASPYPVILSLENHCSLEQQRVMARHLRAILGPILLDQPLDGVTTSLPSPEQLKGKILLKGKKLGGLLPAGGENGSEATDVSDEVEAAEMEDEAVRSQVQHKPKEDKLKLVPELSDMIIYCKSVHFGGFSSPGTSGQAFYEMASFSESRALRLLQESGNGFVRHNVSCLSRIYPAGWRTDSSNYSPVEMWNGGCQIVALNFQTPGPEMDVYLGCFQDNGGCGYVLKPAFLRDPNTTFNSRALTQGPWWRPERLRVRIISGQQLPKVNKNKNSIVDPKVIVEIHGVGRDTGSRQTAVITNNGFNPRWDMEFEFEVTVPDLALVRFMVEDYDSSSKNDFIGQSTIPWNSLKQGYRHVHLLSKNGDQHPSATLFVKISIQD

[3] = biological target: T3, Cytohesin-3 (Rattus norvegicus, UniProt P97696); assay: Binding affinity to recombinant rat brain Grp1 PH domain (amino acids 1 to 120) after 10 mins by pull-down assay
T3 sequence (P97696 whole entry): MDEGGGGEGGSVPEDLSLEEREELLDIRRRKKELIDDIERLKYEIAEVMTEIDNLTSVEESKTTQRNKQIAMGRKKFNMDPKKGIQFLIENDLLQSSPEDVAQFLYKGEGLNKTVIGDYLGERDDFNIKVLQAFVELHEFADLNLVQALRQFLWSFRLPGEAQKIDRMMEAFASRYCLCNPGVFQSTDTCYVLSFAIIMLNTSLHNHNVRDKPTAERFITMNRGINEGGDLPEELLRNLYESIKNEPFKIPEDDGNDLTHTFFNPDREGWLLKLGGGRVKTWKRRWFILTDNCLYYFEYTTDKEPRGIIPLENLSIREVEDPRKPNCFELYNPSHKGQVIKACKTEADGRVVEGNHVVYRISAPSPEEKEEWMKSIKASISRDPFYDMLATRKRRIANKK

[4] = biological target: T3, Cytohesin-3; assay: Binding affinity to recombinant rat brain Grp1 PH domain (amino acids 1 to 120) by SPR analysis

| Kd [1] [nM] | Kd [2] [nM] | Kd [3] [nM] | Kd [4] [nM] | SMILES |
| --- | --- | --- | --- | --- |
| 250 | > 5000 | 140 | 300 | O=C(CCCC[C@@H]1SC[C@@H]2NC(=O)N[C@@H]21)NCCCCCCOP(=O)(O)O[C@H]1[C@H](O)[C@@H](OP(=O)(O)O)[C@H](OP(=O)(O)O)[C@@H](OP(=O)(O)O)[C@H]1O |
| – | 2200 | – | > 1000 | O=C(CCCC[C@@H]1SC[C@@H]2NC(=O)N[C@@H]21)NCCCCCCOP(=O)(O)O[C@@H]1[C@H](O)[C@H](O)[C@@H](OP(=O)(O)O)[C@H](OP(=O)(O)O)[C@H]1O |
| – | > 5000 | – | > 1000 | O=C(CCCC[C@@H]1SC[C@@H]2NC(=O)N[C@@H]21)NCCCCCCOP(=O)(O)O[C@@H]1[C@@H](O)[C@H](OP(=O)(O)O)[C@@H](OP(=O)(O)O)[C@H](O)[C@@H]1O |
| – | – | 100 | – | O=P(O)(O)O[C@H]1[C@H](O)[C@@H](OP(=O)(O)O)[C@H](OP(=O)(O)O)[C@@H](OP(=O)(O)O)[C@H]1O |
